According to patent US20170304286A1 (LAUNX BIOMEDICAL CO., LTD., priority 2014, published 2017):
“And” between values parts separate entries of the source, which are not always exact repeats. Equal values may be shown once. Read-outs that look alike come from different tables or passages of the source.

Tests used:
T24 = assay: WST-1 cell viability, bladder cancer cell line T24; assay type: cell-based; conditions: Homo sapiens
Protocol: (§1) The cell numbers were counted and reseed as 2×10^6 in culture plate/flask. Then, the culture medium were added to a volume of 10 ml, and the cells were cultured for 2-3 days. Then, the cells were suspended for loading into 96-well plates. The number of cells was 3000 and the volume of the culture medium was 100 μl each well.
Removing the original culture medium from 96-well plate. Then add 100 μl of commercially drug at a concentration of 10 μM per well. After 72 hours, add the diluted WST-1 reagent to the well with 100 μl/well, and the diluted WST-1 reagent was acquired from the dilution of 9:1 medium and WST-1 stock reagent. Finally, the total volume of each well was 200 μl/well. […] Detecting and calculate the survival rate of each cancer cells with an ELISA reader at OD450 nm.

[1] = system: A375 (amelanotic melanoma); assay: WST-1 cell viability, skin cancer cell line A375; assay type: cell-based; conditions: Homo sapiens
Protocol: as §1
(§2) Removing the original culture medium from 96-well plate. Then add 100 μl of commercially drug at a concentration of 10 μM per well. After 72 hours, add the diluted WST-1 reagent to the well with 100 μl/well, and the diluted WST-1 reagent was acquired from the dilution of 9:1 medium and WST-1 stock reagent. Finally, the total volume of each well was 200 μl/well. Culture the 96-well plate at 37° C. for 30 to 90 minutes. Detecting and calculate the survival rate of each cancer cells with an ELISA reader at OD450 nm.

[2] = system: gastric cancer cells (AGS); assay: Animal model test of gastric cancer, tumor size; assay type: in vivo, mice
Protocol: In this invention, the female mice were (BALB/cAnN.Cg-Foxn1^nu/CrlNarl) purchased from National Laboratory Animal Center (Taiwan). The weight of the mice were 21±1 g. These mice were subcutaneously injected with gastric cancer cells (AGS) and then put these mice into different cage sat random. The drug test experiment was divided into three groups, include “control group”, “low dose group (100 mg/kg/day)”, and “high dose group (200 mg/kg/day)”. These mice were then injected test drug intraperitoneally once daily […]. The tumor sizes and body weight were measured twice a week. The tumor sizes were measured and calculated by formula: (L×W^2)/2. L represents the tumor longest length. W represents the tumor shortest diameter.

normal cells = assay: Toxicity to normal cells (cell viability); assay type: cell-based
Description: Subculture the different types of cancer cells. The cancer cells includes lung cancer, gastric cancer, hepatic cancer, colon cancer, skin cancer, cervical cancer, prostate cancer, bladder cancer, breast cancer, leukemia, pancreatic cancer, ovarian cancer, tongue cancer, osteosarcoma, and renal cancer. The normal cells used in the control group included kidney cells (HEK293), canine fibroblast cell line HFW, and human bronchial epithelial cell line BEAS-2B.
as §2

[3] = 100 mg/kg/day i.p., Fifth measurement
[4] = 100 mg/kg/day i.p., Fifth measurement, mice A, B, C
[5] = 100 mg/kg/day i.p., First measurement
[6] = 100 mg/kg/day i.p., First measurement, mice A, B, C
[7] = 100 mg/kg/day i.p., Fourth measurement
[8] = 100 mg/kg/day i.p., Fourth measurement, mice A, B, C
[9] = 100 mg/kg/day i.p., Second measurement
[10] = 100 mg/kg/day i.p., Second measurement, mice A, B, C
[11] = 100 mg/kg/day i.p., Third measurement
[12] = 100 mg/kg/day i.p., Third measurement, mice A, B, C
[13] = 200 mg/kg/day i.p., Fifth measurement
[14] = 200 mg/kg/day i.p., Fifth measurement, mice A, B, C
[15] = 200 mg/kg/day i.p., First measurement
[16] = 200 mg/kg/day i.p., First measurement, mice A, B, C
[17] = 200 mg/kg/day i.p., Fourth measurement
[18] = 200 mg/kg/day i.p., Fourth measurement, mice A, B, C
[19] = 200 mg/kg/day i.p., Second measurement
[20] = 200 mg/kg/day i.p., Second measurement, mice A, B, C
[21] = 200 mg/kg/day i.p., Third measurement

Fc1ccc([C@@H]2CCNC[C@H]2COc2ccc3c(c2)OCO3)cc1 [Paroxetine] showed a viability at 10 µM (T24; T-24, 72 h, T24, average of 4 tests, read-out: survival rate (inhibition effect), Average) of 99.9%, a viability at 10 µM (T24; T-24, T24, 72 h, run 1-30 min, read-out: survival rate (inhibition effect)) of 112% and a viability at 10 µM (T24; T-24, T24, 72 h, run 2-20 min, read-out: survival rate (inhibition effect)) of 85.2%. For the same molecule, the viability at 10 µM (T24; T-24, T24, 72 h, run 3-20 min, read-out: survival rate (inhibition effect)) was 102%, the viability at 10 µM (T24; T-24, T24, 72 h, run 4-20 min, read-out: survival rate (inhibition effect)) was 102% and the viability at 10 µM ([1]; A-375, 72 h, A375, average of 4 tests, read-out: survival rate (inhibition effect), Average) was 43.8%. It also gave a viability at 10 µM ([1]; A-375, A375, 72 h, run 0602-30 min, read-out: survival rate (inhibition effect)) of 46.8%, a viability at 10 µM ([1]; A-375, A375, 72 h, run 0605-10 min, read-out: survival rate (inhibition effect)) of 44.4% and a viability at 10 µM ([1]; A-375, A375, 72 h, run 0607-10 min, read-out: survival rate (inhibition effect)) of 35.4%. The viability at 10 µM ([1]; A-375, A375, 72 h, run 0609-10 min, read-out: survival rate (inhibition effect)) was 48.8%, the “Tumor volume growth, average” value [2, 3] was −8.333 mm3 and the “volume, average” value [2, 3] was 63.333 mm3. For the same molecule, the longest length [2, 4] was 6 mm and 4 mm, the width [2, 4] was 6 mm and 5 mm and 4 mm and the “Tumor volume growth, average” value [2, 5] was 113.1667 mm3. The “volume, average” value [2, 5] was 113.1667 mm3, the Tumor volume growth [2, 6] was 87.5 mm3 and 144 mm3 and 108 mm3 and the longest length [2, 6] was 7 mm and 8 mm and 6 mm. For the same molecule, the volume [2, 6] was 87.5 mm3 and 144 mm3 and 108 mm3, the width [2, 6] was 5 mm and 6 mm and the “Tumor volume growth, average” value [2, 7] was −18.167 mm3. The “volume, average” value [2, 7] was 71.667 mm3, the longest length [2, 8] was 6 mm and 4 mm and the width [2, 8] was 6 mm and 4 mm and 5 mm. For the same molecule, the “Tumor volume growth, average” value [2, 9] was −4.167 mm3, the “volume, average” value [2, 9] was 109 mm3 and the longest length [2, 10] was 6 mm and 7 mm. The volume [2, 10] was 75 mm3 and 126 mm3, the width [2, 10] was 5 mm and 6 mm and the “Tumor volume growth, average” value [2, 11] was −19.167 mm3. The “volume, average” value [2, 11] was 89.833 mm3, the longest length [2, 12] was 7 mm and the width [2, 12] was 6 mm and 4 mm and 5 mm. For the same molecule, the “Tumor volume growth, average” value [2, 13] was 0 mm3, the “volume, average” value [2, 13] was 0 mm3 and the Tumor volume growth [2, 14] was 0 mm3. It also gave a longest length [2, 14] of 0 mm, a volume [2, 14] of 0 mm3 and a width [2, 14] of 0 mm. The “Tumor volume growth, average” value [2, 15] was 78.5 mm3, the “volume, average” value [2, 15] was 78.5 mm3 and the longest length [2, 16] was 6 mm and 8 mm and 7 mm. The width [2, 16] was 4 mm and 5 mm, the “Tumor volume growth, average” value [2, 17] was −13.33 mm3 and the “volume, average” value [2, 17] was 0 mm3. For the same molecule, the longest length [2, 18] was 0 mm, the volume [2, 18] was 0 mm3 and the width [2, 18] was 0 mm. The “Tumor volume growth, average” value [2, 19] was −25.8333 mm3, the “volume, average” value [2, 19] was 52.67 mm3 and the longest length [2, 20] was 6 mm and 5 mm and 7 mm. The width [2, 20] was 4 mm and 3 mm and 5 mm, the “Tumor volume growth, average” value [2, 21] was −39.33 mm3 and the “volume, average” value [2, 21] was 13.333 mm3. For the same molecule, the “inhibition effect on tumor cells” value ([2]; both low dose and high dose, FIG. 2) was “significant inhibition effect”, the Tumor volume growth ([2]; both low dose and high dose, FIG. 3) was “effectively slow down the tumor volume growth” and the “inhibition of tumor growth, high doses compared with low” value ([2]; high doses, FIG. 3) was “better effect to inhibit tumor growth”. The “toxicity to normal cells” value (normal cells) was “no toxicity or had little toxicity”.
